Experiments:
[1] = tested on: FeCl3-induced thrombus in femoral artery; test: Antithrombotic effect in rat FeCl3-induced thrombus model; assay type: in vivo; settings: male Wistar rats
Procedure: Methylcellulose (METOLOSE, SM-400, Shin-Etsu Chemical Co., Ltd.) was dissolved in distilled water, to prepare a 0.5 w/v% methylcellulose aqueous solution. The 0.5 w/v% methylcellulose aqueous solution was added to the compound A, to prepare a 10 mg/mL suspension of compound A in the 0.5 w/v% methylcellulose aqueous solution. • (b) Beraprost Sodium The 0.5 w/v% methylcellulose aqueous solution was added to beraprost sodium, to prepare a 1.0 mg/mL aqueous solution of beraprost sodium in the 0.5 w/v% methylcellulose aqueous solution. • (c) Cilostazol The 0.5 w/v% methylcellulose aqueous solution was added to cilostazol, to prepare a 150 or 50 mg/mL suspension of cilostazol. Urethane (Wako Pure Chemical Industries, Ltd.) was dissolved in saline (Otsuka Pharmaceutical Factory, Inc.) to prepare a solution of 0.3 g/mL. The urethane saline solution was subcutaneously administered to rats at 4 mL per 1 kg of body weight (1.2 g/kg) to anesthetize them. […] Male Wistar rats aged 9 to 10 weeks were used as rats. The abdomen of the rat was incised to expose the duodenum, and drugs were injected 2 to 3 mm downstream from the vicinity of the gastric-duodenal boundary using a 26G injection needle and syringe. The compound A and beraprost sodium were administered at a dose of 1 mL/kg, and cilostazol was administered at a dose of 2 mL/kg. The skin on the right thigh of the rat was incised to expose the femoral artery, and the vein and nerve were dissected. A parafilm was placed under the dissected femoral artery to completely separate the femoral artery, vein, and nerve. A laser Doppler blood flowmeter (ALF21, Advance) probe was placed on the femoral artery to start measuring the blood flow (mL/min/g). 60 minutes after the administration for the compound A-administered group, 30 minutes after the administration for the beraprost sodium-administered group, and 120 minutes after the administration for the cilostazol-administered group, a filter paper (2 mm×5 mm) impregnated with a 10 w/w% FeCl3 aqueous solution was placed on the femoral artery, and changes in blood flow were measured using a biometric data processing system (FLO-WB, Omega Wave Co., Ltd.) and recorded.

[2] = tested on: gait disturbance in patient with arteriosclerosis obliterans; test: Improvement of gait disturbance in patients with arteriosclerosis obliterans (placebo-controlled, double-blind study); assay type: in vivo, human; settings: Japanese patients, 0.1 to 1.6 mg twice a day for 24 to 36 weeks
Procedure: As a placebo-controlled, double-blind comparative study, Japanese patients with arteriosclerosis obliterans (selected by resting ABI, or the like) received placebo or selexipag (which is compound A) at 0.1 to 1.6 mg twice a day for 24 to 36 weeks (dose adjustment period: 8 to 20 weeks, dose maintenance period: 16 weeks).

[3] = tested on: ischemic gait disturbance caused by ligation of the iliac artery; test: Gait improvement in rat ischemic gait disturbance model (iliac artery ligation, treadmill); assay type: in vivo; settings: male Wistar rats, 3 mg/kg orally twice a day for 9 days from one day after surgery; measured 3, 7 and 10 days after surgery; p<0.01 vs control
Procedure: Wistar rats (male, 7 week-old) (available from CHARLES RIVER LABORATORIES JAPAN, INC.) were subjected to gait training using a treadmill (MK-680, available from Muromachi Kikai Co., Ltd.) for three consecutive days-6 days before surgery, 5 days before surgery, and 4 days before surgery. On the day before surgery, the pre-value of the walking distance was measured, the animals were divided into groups, and sham surgery or iliac artery ligation surgery described in i) below was performed. […] Walking time was measured 3 days, 7 days and 10 days after the surgery. Based on the measured walking time, the walking distance was calculated. • i) Method of Iliac Artery Ligation Surgery Rats were anesthetized by intraperitoneal administration of 50 mg/kg pentobarbital sodium (Somnopentyl®, Schering-Plough Animal Health). […] The ligation of the iliac artery was performed by the data manager and this information was not disclosed to the gait tester until the study was completed. • ii) Walking Time Measurement Method The speed of the treadmill belt was increased from 15 m/min to 35 m/min by increments of 5 m/min in each 3 minutes, and the time the rat got on the electrical stimulation plate at the rear end of the belt was recorded as the dropout time. […] After the measurement, the dropout time was recorded in the gait test record. […]

Structure (SMILES): CC#CCC(C)[C@H](O)/C=C/[C@@H]1[C@H]2c3cccc(CCCC(=O)O)c3O[C@H]2C[C@H]1O (mixture of isomers) [beraprost sodium]
- vascular occlusion time ([1]; 0.3 mg/kg intraduodenal, 30 minutes before induction): not prolonged
- reduction in blood pressure ([1]; 0.3 mg/kg intraduodenal, observed over time): 25%
- vascular occlusion time ([1]; 1 mg/kg intraduodenal, administration 30 minutes before induction, vehicle control about 12 to 15 minutes): about 43 minutes

Structure (SMILES): O=C1CCc2cc(OCCCCc3nnnn3C3CCCCC3)ccc2N1 [cilostazol]
- vascular occlusion time ([1]; 150 or 50 mg/mL suspension at 2 mL/kg intraduodenal, 120 minutes before induction): Neither dose of cilostazol prolonged the occlusion time

Structure (SMILES): CC(C)N(CCCCOCC(=O)NS(C)(=O)=O)c1cnc(-c2ccccc2)c(-c2ccccc2)n1 [compound A, 2-{4-[N-(5,6-diphenylpyrazine-2-yl)-N-isopropylamino]butyloxy}-N-(methylsulfonyl) acetamide]
- vascular occlusion time ([1]; 10 mg/kg intraduodenal, administration 60 minutes before induction, vehicle control about 12 to 15 minutes): about 22 minutes
- improvement of gait disturbance (treadmill, maximum walking time, Gartner method) [2]: Improvement of patient's gait disturbance was confirmed
- improvement of gait disturbance (walking distance, FIG. 1) [3]: significantly improved gait disturbance
